Measured values: ChEMBL document CHEMBL1201862, “PubChem BioAssay data set” (2004)
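48-hour exposure; five concentrations; linearly interpolated endpoints. At the GI50, growth is halved.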 The source made the active and inactive calls. Cut-off read from the data, not from the text of the source: active = GI50 up to about 1.1 µM and inactive = higher.

Legend:
Experiment in all cases: DTP human tumour cell line panel, 48 h
OVCAR-8 = test system: OVCAR-8
NCI-H460 = test system: NCI-H460
U-251 = test system: U-251
TK-10 = test system: TK-10
786-0 = test system: 786-0
SF-268 = test system: SF-268
HOP-92 = test system: HOP-92
SR = test system: SR
SW-620 = test system: SW-620
M14 = test system: M14
OVCAR-4 = test system: OVCAR-4
Malme-3M = test system: Malme-3M
T47D = test system: T47D
MOLT-4 = test system: MOLT-4
K562 = test system: K562
SK-MEL-28 = test system: SK-MEL-28
UACC-62 = test system: UACC-62
A498 = test system: A498
A549 = test system: A549

Compound	GI50 (OVCAR-8)	GI50 (NCI-H460)	GI50 (U-251)	GI50 (TK-10)	GI50 (786-0)	GI50 (SF-268)	GI50 (HOP-92)	GI50 (SR)	GI50 (SW-620)	GI50 (M14)	GI50 (OVCAR-4)	GI50 (Malme-3M)	GI50 (T47D)	GI50 (MOLT-4)	GI50 (K562)	GI50 (SK-MEL-28)	GI50 (UACC-62)	GI50 (A498)	GI50 (A549)
Cc1ccc(S(=O)(=O)N/N=C2\CC3CC4CCC2C4C3)cc1 (stereo unspecified)	> 100 µM (inactive)	> 100 µM (inactive)	> 100 µM (inactive)	> 100 µM (inactive)	> 100 µM (inactive)	> 100 µM (inactive)	> 100 µM (inactive)	> 100 µM (inactive)	> 100 µM (inactive)	> 100 µM (inactive)	> 100 µM (inactive)	> 100 µM (inactive)	> 100 µM (inactive)	> 100 µM (inactive)	> 100 µM (inactive)	> 100 µM (inactive)	> 100 µM (inactive)	> 100 µM (inactive)	> 100 µM (inactive)
COC(=O)/C=C1\C(=O)N(C(C)=O)c2ccccc21	17.4 µM (inactive)	10.5 µM (inactive)	12.8 µM (inactive)	7.14 µM (inactive)	4.9 µM (inactive)	16.5 µM (inactive)	2.04 µM (inactive)	2.52 µM (inactive)	13.7 µM (inactive)	13.2 µM (inactive)	5.25 µM (inactive)	13.5 µM (inactive)	8.39 µM (inactive)	5.78 µM (inactive)	5.61 µM (inactive)	12.3 µM (inactive)	4.27 µM (inactive)	0.0371 µM (active)	7.18 µM (inactive)
CN(C)c1nc2n(CCO)c(-c3ccccc3)c(-c3ccccc3)nc-2c(=O)n1	> 100 µM (inactive)	> 100 µM (inactive)	> 100 µM (inactive)	> 100 µM (inactive)	> 100 µM (inactive)	> 100 µM (inactive)	> 100 µM (inactive)	> 100 µM (inactive)	> 100 µM (inactive)	> 100 µM (inactive)	> 100 µM (inactive)	> 100 µM (inactive)	> 100 µM (inactive)	> 100 µM (inactive)	> 100 µM (inactive)	> 100 µM (inactive)	> 100 µM (inactive)	> 100 µM (inactive)	> 100 µM (inactive)
O=C(NCCOC(=O)OCCNC(=O)NC1CCCCC1)NC1CCCCC1	> 100 µM (inactive)	> 100 µM (inactive)	> 100 µM (inactive)	> 100 µM (inactive)	> 100 µM (inactive)	> 100 µM (inactive)	27.1 µM (inactive)	> 100 µM (inactive)	> 100 µM (inactive)	> 100 µM (inactive)	91.6 µM (inactive)	> 100 µM (inactive)	> 100 µM (inactive)	> 100 µM (inactive)	> 100 µM (inactive)	> 100 µM (inactive)	> 100 µM (inactive)	> 100 µM (inactive)	> 100 µM (inactive)
CC(C)C/C=C/C1=NN(c2cccc(S(=O)(=O)O)c2)C2(C1)SCC(=O)N2c1nc2ccccc2s1 (stereo unspecified)	66.2 µM (inactive)	38 µM (inactive)	30.1 µM (inactive)	34.4 µM (inactive)	21.3 µM (inactive)	37.2 µM (inactive)	> 100 µM (inactive)	25.2 µM (inactive)	96.6 µM (inactive)	> 100 µM (inactive)	61.7 µM (inactive)	93.1 µM (inactive)	5.43 µM (inactive)	33.8 µM (inactive)	51.4 µM (inactive)	> 100 µM (inactive)	48.4 µM (inactive)	27.7 µM (inactive)	89.1 µM (inactive)
O=C1CCSC(=S)N1c1ccc(Br)c(Cl)c1	30.5 µM (inactive)	21.8 µM (inactive)	27.1 µM (inactive)	30.2 µM (inactive)	24.4 µM (inactive)	18.5 µM (inactive)	25.4 µM (inactive)	32 µM (inactive)	28.1 µM (inactive)	58.1 µM (inactive)	22.2 µM (inactive)	22.9 µM (inactive)	14.9 µM (inactive)	37.4 µM (inactive)	32.9 µM (inactive)	17.7 µM (inactive)	23.6 µM (inactive)	22.2 µM (inactive)	35.3 µM (inactive)
CCn1c(=N)sc2nc3ccccc3n2c1=O	> 100 µM (inactive)	> 100 µM (inactive)	> 100 µM (inactive)	> 100 µM (inactive)	> 100 µM (inactive)	> 100 µM (inactive)	> 100 µM (inactive)	> 100 µM (inactive)	> 100 µM (inactive)	> 100 µM (inactive)	> 100 µM (inactive)	> 100 µM (inactive)	> 100 µM (inactive)	> 100 µM (inactive)	> 100 µM (inactive)	> 100 µM (inactive)	> 100 µM (inactive)	> 100 µM (inactive)	> 100 µM (inactive)
CSc1ncc2c(n1)-c1ccccc1OC2NC(C)(C)C (stereo unspecified)	> 100 µM (inactive)	> 100 µM (inactive)	> 100 µM (inactive)	33.9 µM (inactive)	> 100 µM (inactive)	87.3 µM (inactive)	31.8 µM (inactive)	> 100 µM (inactive)	> 100 µM (inactive)	> 100 µM (inactive)	> 100 µM (inactive)	> 100 µM (inactive)	55 µM (inactive)	47.2 µM (inactive)	> 100 µM (inactive)	> 100 µM (inactive)	68.1 µM (inactive)	2.62 µM (inactive)	> 100 µM (inactive)
CC(C)(C)[C@@H]1NC(=O)CN1C(=O)OCc1ccccc1	> 100 µM (inactive)	> 100 µM (inactive)	> 100 µM (inactive)	> 100 µM (inactive)	> 100 µM (inactive)	> 100 µM (inactive)	> 100 µM (inactive)	> 100 µM (inactive)	> 100 µM (inactive)	> 100 µM (inactive)	> 100 µM (inactive)	> 100 µM (inactive)	> 100 µM (inactive)	> 100 µM (inactive)	> 100 µM (inactive)	> 100 µM (inactive)	> 100 µM (inactive)	> 100 µM (inactive)	> 100 µM (inactive)
COC1(CC[C@H](C)COC2OC(CO)C(O)C(O)C2O)O[C@H]2C[C@H]3[C@@H]4CC=C5C[C@@H](OC6OC(CO)C(O)C(OC7OC(CO)C(O)C(O)C7O)C6OC6OC(C)C(O)C(O)C6O)CC[C@]5(C)[C@H]4CC[C@]3(C)[C@H]2[C@@H]1C (stereo partly specified)	3.03 µM (inactive)	3.62 µM (inactive)	2.12 µM (inactive)	21.2 µM (inactive)	2.32 µM (inactive)	4.89 µM (inactive)	3.37 µM (inactive)	> 100 µM (inactive)	2.81 µM (inactive)	2.84 µM (inactive)	5.28 µM (inactive)	2.5 µM (inactive)	2.61 µM (inactive)	3.15 µM (inactive)	4.88 µM (inactive)	2.31 µM (inactive)	3.7 µM (inactive)	17.8 µM (inactive)	2.73 µM (inactive)
N=C(N)NC1C(O)C(O)C(O)C(NC(=N)N)C1O (stereo unspecified)	> 100 µM (inactive)	> 100 µM (inactive)	> 100 µM (inactive)	> 100 µM (inactive)	> 100 µM (inactive)	> 100 µM (inactive)	> 100 µM (inactive)	> 100 µM (inactive)	> 100 µM (inactive)	> 100 µM (inactive)	> 100 µM (inactive)	> 100 µM (inactive)	> 100 µM (inactive)	> 100 µM (inactive)	> 100 µM (inactive)	> 100 µM (inactive)	> 100 µM (inactive)	> 100 µM (inactive)	> 100 µM (inactive)
FC(F)(F)C1(C(F)(F)F)O[Si]2(OC(C(F)(F)F)(C(F)(F)F)c3ccccc32)c2ccccc21	8.75 µM (inactive)	5.98 µM (inactive)	3.95 µM (inactive)	17.4 µM (inactive)	12.7 µM (inactive)	15.6 µM (inactive)	3.69 µM (inactive)	9.95 µM (inactive)	17.1 µM (inactive)	13.2 µM (inactive)	11.4 µM (inactive)	9.46 µM (inactive)	9.95 µM (inactive)	14.4 µM (inactive)	10.3 µM (inactive)	12 µM (inactive)	5.55 µM (inactive)	13.7 µM (inactive)	13.5 µM (inactive)
Cn1c2ccccc2n2c3ccccc3c3nnc(N)c-3c12	8.18 µM (inactive)	> 60.4 µM (inactive)	0.673 µM (active)	> 100 µM (inactive)	0.847 µM (active)	0.589 µM (active)	42.4 µM (inactive)	26.7 µM (inactive)	57.8 µM (inactive)	> 95.3 µM (inactive)	41 µM (inactive)	10.5 µM (inactive)	1.64 µM (inactive)	7.67 µM (inactive)	> 65.8 µM (inactive)	> 81.3 µM (inactive)	73.6 µM (inactive)	> 100 µM (inactive)	> 100 µM (inactive)
Cc1cccc(C)c1NC(=O)Nc1ccc(S(N)(=O)=O)cc1	> 100 µM (inactive)	> 100 µM (inactive)	> 100 µM (inactive)	> 100 µM (inactive)	> 100 µM (inactive)	> 100 µM (inactive)	> 100 µM (inactive)	> 100 µM (inactive)	> 100 µM (inactive)	> 100 µM (inactive)	> 100 µM (inactive)	> 100 µM (inactive)	> 100 µM (inactive)	> 100 µM (inactive)	> 100 µM (inactive)	> 100 µM (inactive)	> 100 µM (inactive)	> 100 µM (inactive)	> 100 µM (inactive)
